Data: article PMC12377734 (Proceedings of the National Academy of Sciences of the …, 2025)

Assays:
Format in all cases: cell-based
hPIEZO1 [1] = target: hPIEZO1 (Homo sapiens, UniProt Q92508, L322P); test: FLIPR GCaMP6s Ca2+ assay
mPIEZO1 [2] = target: mPIEZO1 (Mus musculus, UniProt E2JF22); test: FLIPR GCaMP6s Ca2+ assay
mPIEZO1 [3] = target: mPIEZO1 (Mus musculus, UniProt E2JF22, L329P); test: FLIPR GCaMP6s Ca2+ assay
hPIEZO1 [4] = target: T1, hPIEZO1 (Homo sapiens, UniProt Q92508); test: FLIPR GCaMP6s Ca2+ assay
hPIEZO1 [5] = target: T1, hPIEZO1; test: single-cell Fura-2 Ca2+ imaging; details: activator; HEK-P1-KO cells, 1 mM Jedi1, pH 7.2, 1.3 mM Ca2+

T1 sequence (Q92508 whole entry): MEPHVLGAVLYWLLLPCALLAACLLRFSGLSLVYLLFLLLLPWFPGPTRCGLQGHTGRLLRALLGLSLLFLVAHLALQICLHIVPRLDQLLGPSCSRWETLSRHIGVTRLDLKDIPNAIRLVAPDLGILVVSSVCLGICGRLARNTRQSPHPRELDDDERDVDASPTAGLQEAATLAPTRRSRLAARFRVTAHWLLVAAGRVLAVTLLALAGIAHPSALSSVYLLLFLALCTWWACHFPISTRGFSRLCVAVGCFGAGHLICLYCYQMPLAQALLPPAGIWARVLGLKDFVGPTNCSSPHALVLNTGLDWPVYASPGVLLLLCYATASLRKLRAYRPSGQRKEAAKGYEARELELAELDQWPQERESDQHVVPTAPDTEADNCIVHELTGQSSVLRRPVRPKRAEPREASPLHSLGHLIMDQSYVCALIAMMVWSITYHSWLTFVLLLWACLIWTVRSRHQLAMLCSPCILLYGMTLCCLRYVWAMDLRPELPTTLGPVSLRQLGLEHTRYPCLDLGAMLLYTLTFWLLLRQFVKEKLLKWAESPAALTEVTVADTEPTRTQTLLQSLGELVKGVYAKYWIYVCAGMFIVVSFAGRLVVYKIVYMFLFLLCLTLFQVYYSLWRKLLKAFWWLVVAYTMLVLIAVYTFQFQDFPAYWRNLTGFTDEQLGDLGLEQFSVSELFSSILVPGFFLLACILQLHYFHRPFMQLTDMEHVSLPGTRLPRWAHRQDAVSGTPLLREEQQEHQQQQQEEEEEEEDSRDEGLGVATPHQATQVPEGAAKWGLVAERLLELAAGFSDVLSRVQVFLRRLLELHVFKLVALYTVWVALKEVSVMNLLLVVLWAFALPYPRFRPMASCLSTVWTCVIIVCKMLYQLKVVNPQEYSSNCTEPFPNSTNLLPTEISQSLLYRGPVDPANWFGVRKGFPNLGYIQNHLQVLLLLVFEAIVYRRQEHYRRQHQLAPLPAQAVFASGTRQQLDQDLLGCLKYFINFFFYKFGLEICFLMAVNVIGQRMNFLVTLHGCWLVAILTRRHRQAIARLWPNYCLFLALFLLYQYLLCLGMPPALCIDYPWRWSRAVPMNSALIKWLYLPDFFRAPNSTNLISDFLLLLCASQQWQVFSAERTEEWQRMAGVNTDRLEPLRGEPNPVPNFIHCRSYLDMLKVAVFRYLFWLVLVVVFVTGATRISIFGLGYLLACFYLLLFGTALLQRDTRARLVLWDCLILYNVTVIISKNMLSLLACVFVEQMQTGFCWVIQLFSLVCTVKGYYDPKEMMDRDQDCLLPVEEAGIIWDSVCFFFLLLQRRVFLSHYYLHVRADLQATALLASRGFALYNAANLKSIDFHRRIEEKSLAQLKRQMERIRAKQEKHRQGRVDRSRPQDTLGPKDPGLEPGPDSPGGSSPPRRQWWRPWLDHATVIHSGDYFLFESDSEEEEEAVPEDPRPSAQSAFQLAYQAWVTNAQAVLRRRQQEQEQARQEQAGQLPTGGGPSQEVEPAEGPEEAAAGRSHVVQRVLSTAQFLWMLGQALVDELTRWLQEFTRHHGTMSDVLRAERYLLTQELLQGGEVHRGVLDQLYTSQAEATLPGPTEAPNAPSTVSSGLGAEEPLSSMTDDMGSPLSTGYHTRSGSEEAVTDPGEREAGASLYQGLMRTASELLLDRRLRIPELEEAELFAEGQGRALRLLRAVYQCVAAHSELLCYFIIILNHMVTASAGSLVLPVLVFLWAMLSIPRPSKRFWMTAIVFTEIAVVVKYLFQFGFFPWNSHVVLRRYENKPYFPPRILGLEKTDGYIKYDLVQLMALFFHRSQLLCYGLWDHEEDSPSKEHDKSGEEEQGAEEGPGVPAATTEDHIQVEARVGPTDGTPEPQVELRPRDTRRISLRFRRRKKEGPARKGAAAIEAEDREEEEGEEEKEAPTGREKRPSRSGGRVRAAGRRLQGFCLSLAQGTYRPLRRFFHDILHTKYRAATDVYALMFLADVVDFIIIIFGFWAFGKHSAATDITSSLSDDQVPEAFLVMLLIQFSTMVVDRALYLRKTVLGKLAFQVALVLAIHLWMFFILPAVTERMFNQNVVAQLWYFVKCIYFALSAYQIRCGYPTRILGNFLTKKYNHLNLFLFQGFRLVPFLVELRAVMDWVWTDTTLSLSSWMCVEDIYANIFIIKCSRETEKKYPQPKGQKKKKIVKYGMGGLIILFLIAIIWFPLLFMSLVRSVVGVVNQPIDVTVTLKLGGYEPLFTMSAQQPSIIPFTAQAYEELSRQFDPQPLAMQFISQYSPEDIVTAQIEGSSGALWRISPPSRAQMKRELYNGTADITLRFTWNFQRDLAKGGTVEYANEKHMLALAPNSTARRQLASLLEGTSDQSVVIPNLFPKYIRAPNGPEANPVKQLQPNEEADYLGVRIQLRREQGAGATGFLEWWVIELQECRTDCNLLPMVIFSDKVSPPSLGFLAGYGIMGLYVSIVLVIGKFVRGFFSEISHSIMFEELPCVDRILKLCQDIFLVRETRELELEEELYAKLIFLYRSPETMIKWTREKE
hPIEZO1 (Homo sapiens, UniProt Q92508, L322P), sequence (Q92508 whole entry L322P): as the sequence (Q92508 whole entry) above, with L322P counted along it
mPIEZO1 (Mus musculus, UniProt E2JF22, L329P), sequence (E2JF22 whole entry L329P): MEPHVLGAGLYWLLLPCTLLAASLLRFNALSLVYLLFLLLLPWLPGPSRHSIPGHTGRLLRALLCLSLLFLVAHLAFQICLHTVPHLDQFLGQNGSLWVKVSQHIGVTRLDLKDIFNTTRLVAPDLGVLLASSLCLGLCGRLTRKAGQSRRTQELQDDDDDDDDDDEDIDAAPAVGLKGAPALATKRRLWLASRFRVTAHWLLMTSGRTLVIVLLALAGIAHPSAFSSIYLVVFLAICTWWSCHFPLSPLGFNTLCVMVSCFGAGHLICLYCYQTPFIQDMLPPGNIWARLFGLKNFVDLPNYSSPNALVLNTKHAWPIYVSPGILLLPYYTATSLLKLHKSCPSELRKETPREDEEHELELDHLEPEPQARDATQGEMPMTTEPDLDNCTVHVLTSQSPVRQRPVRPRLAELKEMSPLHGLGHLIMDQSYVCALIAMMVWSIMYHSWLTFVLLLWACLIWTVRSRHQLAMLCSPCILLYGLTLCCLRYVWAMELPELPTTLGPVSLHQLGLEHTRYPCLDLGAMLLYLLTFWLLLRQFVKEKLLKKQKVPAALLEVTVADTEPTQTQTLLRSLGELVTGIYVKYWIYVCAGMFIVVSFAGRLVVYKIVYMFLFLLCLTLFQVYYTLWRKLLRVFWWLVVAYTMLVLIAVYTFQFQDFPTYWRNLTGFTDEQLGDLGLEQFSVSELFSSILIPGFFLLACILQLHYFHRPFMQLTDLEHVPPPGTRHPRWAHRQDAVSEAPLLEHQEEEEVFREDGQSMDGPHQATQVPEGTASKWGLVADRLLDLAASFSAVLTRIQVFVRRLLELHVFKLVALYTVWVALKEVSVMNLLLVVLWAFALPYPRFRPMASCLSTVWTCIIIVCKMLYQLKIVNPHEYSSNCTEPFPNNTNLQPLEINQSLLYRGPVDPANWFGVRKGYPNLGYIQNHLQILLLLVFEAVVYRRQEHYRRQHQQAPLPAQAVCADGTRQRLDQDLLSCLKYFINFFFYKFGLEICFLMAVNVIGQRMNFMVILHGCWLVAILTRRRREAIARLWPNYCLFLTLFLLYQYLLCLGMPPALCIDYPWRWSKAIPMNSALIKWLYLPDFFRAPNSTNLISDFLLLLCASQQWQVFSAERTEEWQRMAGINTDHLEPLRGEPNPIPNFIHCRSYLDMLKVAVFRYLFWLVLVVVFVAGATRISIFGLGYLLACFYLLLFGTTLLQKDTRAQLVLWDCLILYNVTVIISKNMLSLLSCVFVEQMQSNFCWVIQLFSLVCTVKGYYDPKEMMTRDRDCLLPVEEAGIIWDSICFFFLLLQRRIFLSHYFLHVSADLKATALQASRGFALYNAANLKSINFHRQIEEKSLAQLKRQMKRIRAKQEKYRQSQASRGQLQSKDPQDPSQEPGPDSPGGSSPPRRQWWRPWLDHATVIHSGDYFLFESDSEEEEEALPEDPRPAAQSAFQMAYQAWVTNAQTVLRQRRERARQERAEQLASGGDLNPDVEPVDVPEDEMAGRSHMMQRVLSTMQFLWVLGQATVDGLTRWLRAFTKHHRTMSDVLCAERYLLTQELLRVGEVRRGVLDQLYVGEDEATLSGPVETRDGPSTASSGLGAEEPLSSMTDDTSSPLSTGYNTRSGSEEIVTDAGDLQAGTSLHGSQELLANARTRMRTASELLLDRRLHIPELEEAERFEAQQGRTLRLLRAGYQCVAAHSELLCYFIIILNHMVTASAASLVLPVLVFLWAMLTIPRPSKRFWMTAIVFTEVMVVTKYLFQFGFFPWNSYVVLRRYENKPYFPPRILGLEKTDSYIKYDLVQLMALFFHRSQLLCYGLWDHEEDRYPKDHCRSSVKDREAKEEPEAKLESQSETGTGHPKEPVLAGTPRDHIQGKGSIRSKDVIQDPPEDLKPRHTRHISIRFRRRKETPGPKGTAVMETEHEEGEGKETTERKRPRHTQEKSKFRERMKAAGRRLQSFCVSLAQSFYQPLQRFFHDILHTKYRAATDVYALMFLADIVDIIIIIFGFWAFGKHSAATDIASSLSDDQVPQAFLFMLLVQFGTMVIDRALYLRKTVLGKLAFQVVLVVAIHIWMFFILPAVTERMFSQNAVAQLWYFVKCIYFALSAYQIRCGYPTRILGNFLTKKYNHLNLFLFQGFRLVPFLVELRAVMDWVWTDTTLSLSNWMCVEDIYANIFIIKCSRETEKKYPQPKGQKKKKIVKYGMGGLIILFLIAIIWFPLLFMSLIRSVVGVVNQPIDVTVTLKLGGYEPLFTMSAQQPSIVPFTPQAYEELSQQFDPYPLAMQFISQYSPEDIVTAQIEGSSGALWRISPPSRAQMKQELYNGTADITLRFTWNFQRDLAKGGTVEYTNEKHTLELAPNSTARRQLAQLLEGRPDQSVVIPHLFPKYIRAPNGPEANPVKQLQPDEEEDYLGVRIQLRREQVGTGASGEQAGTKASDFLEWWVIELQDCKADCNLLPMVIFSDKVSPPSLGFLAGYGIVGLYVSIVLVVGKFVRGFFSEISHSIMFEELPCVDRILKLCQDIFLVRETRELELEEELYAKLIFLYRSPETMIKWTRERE
mPIEZO1 (Mus musculus, UniProt E2JF22), sequence (E2JF22 whole entry): as the sequence (E2JF22 whole entry L329P) above, with P329L counted along it

EC50 (hPIEZO1 [1]) [µM]	EC50 (mPIEZO1 [2]) [µM]	EC50 (mPIEZO1 [3]) [µM]	EC50 (hPIEZO1 [4]) [µM]	SMILES	Fura-2 ratio change at 1 mM (hPIEZO1 [5])
3.1	4.3	1.3	9.1	Clc1cccc(Cl)c1CSc1nnc(-c2cnccn2)s1 [Yoda1]	
				Cc1oc(-c2ccccc2)cc1C(=O)O [Jedi1]	comparable Fura-2 signal increase in response to the application of either Jedi1 or Yoda1
